In patent US10995068B2, “Synthetic sphingolipid-like molecules, drugs, methods of their synthesis and methods of treatment” (The Regents of the University of California, priority 2015, dated 2021):

Tested on: non-transformed murine OP9 bone marrow stromal cells and primary murine embryonic fibroblasts (MEFs)
Assay: Sensitivity of non-transformed cells versus cancer cell lines
Format: cell-based
Conditions: OP9 and primary MEFs versus DLD-1, LS180, SW48, SW480, SW620, MDA-MB-231, PANC-1
Experimental: Consistent with the bioenergetic mechanism described supra, cells with a higher anabolic rate should be more sensitive to sphingolipid-like compounds. In exemplary experiments testing this mechanism, murine FL5.12 cells with different anabolic rates were treated with SH-BC-893. The anabolic rate of FL5.12 cells can be titrated by modulating the levels of their required growth factor, IL-3; comparing FL5.12 cells grown in high and low IL-3 allows the impact of elevated growth factor signaling and anabolism to be evaluated in a constant genetic background. High concentrations of IL-3 drive aerobic glycolysis and a rapid doubling time (12 h). Reducing IL-3 levels slows proliferation and increases oxidative phosphorylation without compromising cell viability (FIGS. 53A and 53B). […] Many of these cancer cell lines carry activating mutations in Ras. […]
Cell culture and reagents. […] Cell viability was measured by vital dye exclusion using either propidium iodide or DAPI at 1 μg/ml. Analysis of cell surface 4F2hc levels with PE-conjugated anti-CD98 was restricted to viable cells as determined by DAPI exclusion. Anchorage-independent growth of SW620 cells was measured in DMEM-10 containing 0.35% low melt agarose with a 0.5% agarose bottom layer. […]

CCCCCCCCc1ccc([C@H]2CCN[C@@H]2CO)cc1.Cl [Compound 5, (2S,3R)-2-(hydroxymethyl)-3-(4-octylphenyl)Pyrrolidinium chloride]
sensitivity compared with human cancer cell lines: less sensitive
